The target of one experiment is human JAK3 (Homo sapiens (Human), UniProt P52333). As to the kind of experiment: JAK3 TR-FRET kinase assay. It is filed as biochemical. The settings on record: JAK3 0.0125 nM. (In general: Time-resolved FRET reads energy transfer from a long-lived donor to a nearby acceptor.)
The next experiment deals with human JAK2 (Homo sapiens (Human), UniProt O60674). The experiment is described as follows: JAK2 TR-FRET kinase assay. It is filed as biochemical. The settings on record: JAK2 0.025 nM.
Sequence of human JAK2 (O60674 whole entry, the tested form may be a part): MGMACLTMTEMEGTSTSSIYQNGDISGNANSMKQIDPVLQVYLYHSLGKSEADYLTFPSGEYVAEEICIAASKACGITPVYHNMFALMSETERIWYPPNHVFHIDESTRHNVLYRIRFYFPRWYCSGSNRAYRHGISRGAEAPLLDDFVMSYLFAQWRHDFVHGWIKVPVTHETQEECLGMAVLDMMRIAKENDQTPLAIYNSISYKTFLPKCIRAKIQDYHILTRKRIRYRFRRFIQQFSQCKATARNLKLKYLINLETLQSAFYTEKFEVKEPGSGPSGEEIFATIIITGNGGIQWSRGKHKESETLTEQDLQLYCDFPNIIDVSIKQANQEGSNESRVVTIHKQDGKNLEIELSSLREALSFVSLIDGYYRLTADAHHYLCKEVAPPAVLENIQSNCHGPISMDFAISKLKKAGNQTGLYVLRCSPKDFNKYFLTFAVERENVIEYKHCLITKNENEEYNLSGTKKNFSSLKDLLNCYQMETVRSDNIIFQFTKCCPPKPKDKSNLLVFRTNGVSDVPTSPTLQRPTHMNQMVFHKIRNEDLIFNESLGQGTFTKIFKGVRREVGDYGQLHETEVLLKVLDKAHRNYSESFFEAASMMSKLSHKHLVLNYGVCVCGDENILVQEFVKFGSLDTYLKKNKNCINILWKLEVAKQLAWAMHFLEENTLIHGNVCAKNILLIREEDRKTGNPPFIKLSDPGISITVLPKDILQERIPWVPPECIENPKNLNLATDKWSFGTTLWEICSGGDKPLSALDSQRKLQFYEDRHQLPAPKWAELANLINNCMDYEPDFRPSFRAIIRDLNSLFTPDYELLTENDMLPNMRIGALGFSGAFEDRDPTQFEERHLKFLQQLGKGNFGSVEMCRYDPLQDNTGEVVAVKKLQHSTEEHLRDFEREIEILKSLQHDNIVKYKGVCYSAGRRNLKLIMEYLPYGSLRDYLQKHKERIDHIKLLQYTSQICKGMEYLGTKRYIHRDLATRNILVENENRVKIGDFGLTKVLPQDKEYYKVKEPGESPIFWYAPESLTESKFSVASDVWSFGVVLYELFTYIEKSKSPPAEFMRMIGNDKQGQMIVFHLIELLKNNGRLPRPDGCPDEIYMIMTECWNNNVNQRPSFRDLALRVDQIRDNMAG
For the next experiment, the target named is TYK2 JH2 domain (Homo sapiens (Human), UniProt P29597). The experiment is described as follows: TYK2 JH2 NanoBRET assay. It is filed as binding. The settings on record: Table 20, read-out: TYK2 IC50. Here is the method: HEK293T cells were transfected with NanoLuc-TYK2 JH2 Fusion Vector (Promega, customized) using Trans-IT reagent (Mirus, #MIR2700) and incubated for overnight in 37° C. incubator. […] Add 85 µL of cell suspension into white, polypropylene, 96-well plates (Corning, #3600). 90 µL of cells were used for no tracer control samples. 5 µL of diluted NanoBRET K10 tracer (Promega, #CS1810C122) were added to cells to a final concentration of 0.5 µM. Test compounds were diluted into DMSO, and then phenol-free opti-MEM to 10X of final concentration. 10 µL of diluted compounds were added into each well. The cells were incubated with test compound and tracer for 2 hours. 3XNanoBRET® Nano-Glo® Substrate and Extracellular NanoLuc® Inhibitor mixture were prepared and 50 µL of the mixture were added into the wells and mixed. […] NanoBRET signal was determined by using the ratio of acceptor signal and donor signal.
Sequence of TYK2 JH2 domain (P29597 589-875): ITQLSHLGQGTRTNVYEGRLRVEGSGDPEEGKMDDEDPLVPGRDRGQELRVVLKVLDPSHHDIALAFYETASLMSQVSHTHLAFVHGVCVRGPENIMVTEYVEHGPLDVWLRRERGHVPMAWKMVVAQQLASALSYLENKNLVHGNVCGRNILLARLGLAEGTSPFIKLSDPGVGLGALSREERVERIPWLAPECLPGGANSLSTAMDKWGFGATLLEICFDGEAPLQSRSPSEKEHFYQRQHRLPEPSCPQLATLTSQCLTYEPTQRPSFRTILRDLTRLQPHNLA
In general terms: BRET reads energy transfer from a luciferase to a nearby fluorophore.

The target in the next experiment is human JAK1 (Homo sapiens (Human), UniProt P23458). The experiment is described as follows: JAK1 TR-FRET kinase assay. It is filed as biochemical. The settings on record: TR-FRET, JAK1 2.5 nM.
Sequence of human JAK1 (P23458 whole entry): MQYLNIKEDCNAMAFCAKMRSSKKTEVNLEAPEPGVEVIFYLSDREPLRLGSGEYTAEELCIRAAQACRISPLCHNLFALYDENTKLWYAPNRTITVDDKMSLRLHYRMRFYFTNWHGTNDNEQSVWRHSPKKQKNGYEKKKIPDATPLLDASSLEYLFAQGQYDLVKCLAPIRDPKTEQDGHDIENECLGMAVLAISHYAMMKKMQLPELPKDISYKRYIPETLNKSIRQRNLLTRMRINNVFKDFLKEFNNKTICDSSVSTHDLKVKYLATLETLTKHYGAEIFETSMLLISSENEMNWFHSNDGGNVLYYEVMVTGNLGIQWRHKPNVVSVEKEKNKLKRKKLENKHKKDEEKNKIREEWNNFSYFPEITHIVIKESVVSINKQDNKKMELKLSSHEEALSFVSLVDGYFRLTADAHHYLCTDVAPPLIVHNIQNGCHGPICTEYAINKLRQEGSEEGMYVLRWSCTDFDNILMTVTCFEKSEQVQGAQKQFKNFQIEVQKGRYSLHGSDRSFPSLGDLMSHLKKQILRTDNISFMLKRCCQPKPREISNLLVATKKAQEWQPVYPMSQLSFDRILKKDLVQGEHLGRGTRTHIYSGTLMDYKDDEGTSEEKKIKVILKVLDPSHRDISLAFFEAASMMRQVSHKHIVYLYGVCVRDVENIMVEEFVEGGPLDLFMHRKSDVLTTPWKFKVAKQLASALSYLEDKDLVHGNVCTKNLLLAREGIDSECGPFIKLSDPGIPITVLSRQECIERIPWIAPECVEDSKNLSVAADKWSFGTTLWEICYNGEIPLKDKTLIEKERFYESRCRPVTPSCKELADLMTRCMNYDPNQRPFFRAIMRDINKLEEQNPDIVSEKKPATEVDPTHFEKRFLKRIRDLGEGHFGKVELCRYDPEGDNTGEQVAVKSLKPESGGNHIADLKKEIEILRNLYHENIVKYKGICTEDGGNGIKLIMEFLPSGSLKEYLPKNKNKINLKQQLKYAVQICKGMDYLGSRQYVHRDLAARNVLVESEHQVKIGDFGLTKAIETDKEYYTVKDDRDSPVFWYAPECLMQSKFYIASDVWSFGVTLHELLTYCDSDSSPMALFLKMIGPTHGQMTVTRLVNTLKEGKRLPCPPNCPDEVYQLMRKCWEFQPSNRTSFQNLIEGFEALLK

Each structure is given as a SMILES string.

From patent publication US20230295119A1, “SUBSTITUTED PYRIDINES FOR THE TREATMENT OF INFLAMMATORY DISEASES” (GOSSAMER BIO SERVICES, INC., priority 2020, published 2023) come the findings set out here.

Broadly, the IC50 is the concentration needed to halve the response being measured.

Sequence of human JAK3 (P52333 whole entry): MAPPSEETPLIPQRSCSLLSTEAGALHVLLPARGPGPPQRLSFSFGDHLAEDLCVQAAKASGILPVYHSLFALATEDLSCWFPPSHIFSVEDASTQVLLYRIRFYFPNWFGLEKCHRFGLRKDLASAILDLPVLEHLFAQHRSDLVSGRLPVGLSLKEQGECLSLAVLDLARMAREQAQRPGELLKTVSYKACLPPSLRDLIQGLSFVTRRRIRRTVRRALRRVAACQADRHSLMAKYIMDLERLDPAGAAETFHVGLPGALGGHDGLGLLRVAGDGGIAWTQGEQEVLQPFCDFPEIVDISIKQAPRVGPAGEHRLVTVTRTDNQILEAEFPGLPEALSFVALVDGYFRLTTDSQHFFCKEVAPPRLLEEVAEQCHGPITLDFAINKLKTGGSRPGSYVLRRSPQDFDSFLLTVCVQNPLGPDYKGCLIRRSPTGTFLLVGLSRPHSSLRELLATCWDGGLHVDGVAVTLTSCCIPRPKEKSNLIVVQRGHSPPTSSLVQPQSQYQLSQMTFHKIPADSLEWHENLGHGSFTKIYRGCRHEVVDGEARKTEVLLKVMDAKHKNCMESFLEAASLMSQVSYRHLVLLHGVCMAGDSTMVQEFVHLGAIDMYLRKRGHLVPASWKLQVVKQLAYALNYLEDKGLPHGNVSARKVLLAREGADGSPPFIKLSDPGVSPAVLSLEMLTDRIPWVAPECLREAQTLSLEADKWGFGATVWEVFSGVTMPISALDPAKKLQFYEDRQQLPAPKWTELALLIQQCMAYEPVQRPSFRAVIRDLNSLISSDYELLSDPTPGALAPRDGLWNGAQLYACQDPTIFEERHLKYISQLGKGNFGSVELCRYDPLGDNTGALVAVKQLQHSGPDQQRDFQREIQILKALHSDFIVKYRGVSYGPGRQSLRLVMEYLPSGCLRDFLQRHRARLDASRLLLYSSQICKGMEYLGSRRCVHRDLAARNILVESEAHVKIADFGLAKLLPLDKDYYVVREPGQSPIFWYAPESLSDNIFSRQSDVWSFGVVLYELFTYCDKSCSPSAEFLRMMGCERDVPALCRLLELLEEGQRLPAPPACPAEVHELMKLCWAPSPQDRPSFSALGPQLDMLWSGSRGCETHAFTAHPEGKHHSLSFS

In the case of `CCC(=O)c1cnc(Nc2cnc(CNC)cn2)cc1Nc1cccc(-c2ncn(C)n2)c1OC` [Compound 9RRR], the IC50 on human JAK3 was ≥ 500 nM; on human JAK2, ≥ 500 nM; at TYK2 JH2 domain it was < 5 nM; against human JAK1, ≥ 500 nM.

On to `CCC(=O)c1cnc(Nc2ccn(-c3ccccn3)n2)cc1Nc1cccc(-c2ncn(C)n2)c1OC` [Compound 21E], for which the IC50 at human JAK3 is ≥ 500 nM; against human JAK2, ≥ 500 nM; at TYK2 JH2 domain it was < 5 nM; at human JAK1 it was ≥ 500 nM.

In the case of `CCC(=O)c1cnc(Nc2ccc(CCN(C)C)cn2)cc1Nc1cccc(-c2ncn(C)n2)c1OC` [Compound 11A, 1-(6-((5-(2-(dimethylamino)ethyl)pyridin-2-yl)amino)-4-((2-methoxy-3-(1-methyl-1H-1,2,4-triazol-3-yl)phenyl)amino)pyridin-3-yl)propan-1-one], the IC50 was ≥ 500 nM against human JAK3, ≥ 500 nM at human JAK2, < 5 nM at TYK2 JH2 domain and ≥ 500 nM on human JAK1.

For the compound `CCC(=O)c1cnc(Nc2ccc(CN3CC4(CCOC4)C3)cn2)cc1Nc1cccc(-c2ncn(C)n2)c1OC` [Compound 9CCC], the IC50 at human JAK3 was ≥ 500 nM; on human JAK2, ≥ 500 nM; at TYK2 JH2 domain it was < 5 nM; against human JAK1, ≥ 500 nM.

On to `CCC(=O)c1cnc(Nc2cnc(O[C@H]3CN[C@@H](C(F)F)C3)cn2)cc1Nc1cccc(-c2ncn(C)n2)c1OC` [Compound 18000], for which the 50% inhibitory concentration (IC50) was ≥ 500 nM on human JAK3, ≥ 500 nM against human JAK2, 5 to 50 nM at TYK2 JH2 domain and ≥ 500 nM against human JAK1.

Turning to `CCC(=O)c1cnc(Nc2ccc(C(=O)O)cn2)cc1Nc1cccc(-c2ncn(C)n2)c1OC` [Compound 8B], the IC50 is ≥ 500 nM against human JAK3, ≥ 500 nM against human JAK2, 50 to 500 nM on TYK2 JH2 domain and ≥ 500 nM on human JAK1.

With `CCC(=O)c1cnc(Nc2ccc(-c3cccn(C)c3=O)cn2)cc1Nc1cccc(-c2ncn(C)n2)c1OC` [Compound 16A, 6′-((4-((2-methoxy-3-(1-methyl-1H-1,2,4-triazol-3-yl)phenyl)amino)-5-propionylpyridin-2-yl)amino)-1-methyl-[3,3′-bipyridin]-2(1H)-one], the IC50 is 50 to 500 nM at human JAK3, 50 to 500 nM on human JAK2, < 5 nM at TYK2 JH2 domain and ≥ 500 nM at human JAK1.

On to `CCC(=O)c1cnc(Nc2cccc(CN3CCCCC3)n2)cc1Nc1cccc(-c2ncn(C)n2)c1OC` [Compound 9GGGG], for which the IC50 is ≥ 500 nM against human JAK3, ≥ 500 nM against human JAK2, 5 to 50 nM on TYK2 JH2 domain and ≥ 500 nM against human JAK1.

Take `CCC(=O)c1cnc(Nc2ccc(CS(C)(=O)=O)cn2)cc1Nc1nccc(-c2ncn(C)n2)c1OC` [Compound 13M]: the IC50 is ≥ 500 nM against human JAK3, 50 to 500 nM on human JAK2, < 5 nM on TYK2 JH2 domain and ≥ 500 nM against human JAK1.

Take `CCC(=O)c1cnc(Nc2ccc(C(C)N(C)C)nn2)cc1Nc1cccc(-c2ncn(C)n2)c1OC` (stereo not shown) [Compound 9KKK]: the IC50 on human JAK3 was ≥ 500 nM; at human JAK2, ≥ 500 nM; at TYK2 JH2 domain it was < 5 nM; at human JAK1, ≥ 500 nM.

On to `CCC(=O)c1cnc(Nc2ccc(S(N)(=O)=O)cn2)cc1Nc1cccc(-c2ncn(C)n2)c1OC` [Compound 13B], for which the 50% inhibitory concentration (IC50) against human JAK3 was ≥ 500 nM; against human JAK2, ≥ 500 nM; at TYK2 JH2 domain, < 5 nM; against human JAK1, ≥ 500 nM.

Turning to `CCC(=O)c1cnc(NC(=O)CC2CC2)cc1Nc1cccc(-c2ncn(C)n2)c1OC` [Compound 23B], the IC50 was ≥ 500 nM against human JAK3, ≥ 500 nM against human JAK2, 5 to 50 nM at TYK2 JH2 domain and ≥ 500 nM against human JAK1.

In the case of `CCC(=O)c1cnc(NC(=O)C2CC2)cc1Nc1cc(F)cc(-c2ncn(CCO)n2)c1OC` [Compound 25F], the IC50 was ≥ 500 nM at human JAK3, ≥ 500 nM against human JAK2, 50 to 500 nM on TYK2 JH2 domain and ≥ 500 nM at human JAK1.

On to `CCC(=O)c1cnc(Nc2ccc(-c3ncn(C)n3)cn2)cc1Nc1cccc(-c2ncn(C)n2)c1OC` [Compound 15C], for which the IC50 against human JAK3 is ≥ 500 nM; on human JAK2 it was ≥ 500 nM; on TYK2 JH2 domain, < 5 nM; against human JAK1 it was ≥ 500 nM.

For the compound `[2H]C([2H])([2H])N1CC[C@@H](Oc2cnc(Nc3cc(Nc4cccc(-c5ncn(C)n5)c4OC)c(C(=O)CC)cn3)cn2)C1` [Compound 18NNN], the IC50 at human JAK3 was ≥ 500 nM; against human JAK2, ≥ 500 nM; at TYK2 JH2 domain, 5 to 50 nM; on human JAK1 it was ≥ 500 nM.

In the case of `CCC(=O)c1cnc(Nc2ccc(C(C)(C)N(C)C)cn2)cc1Nc1cccc(-c2ncn(C)n2)c1OC` [Compound 9N], the IC50 against human JAK3 was ≥ 500 nM; against human JAK2 it was ≥ 500 nM; at TYK2 JH2 domain, < 5 nM; on human JAK1 it was ≥ 500 nM.

For `CCC(=O)c1cnc(Nc2ccc(O[C@@H]3CCN(C)C3)cn2)cc1Nc1cc(F)cc(-c2ncn(C)n2)c1OC` [Compound 18WWW], the IC50 was ≥ 500 nM at human JAK3, ≥ 500 nM at human JAK2, < 5 nM at TYK2 JH2 domain and ≥ 500 nM against human JAK1.

For the compound `CCC(=O)c1cnc(Nc2cc(CNC)ncn2)cc1Nc1cccc(-c2ncn(C)n2)c1OC` [Compound 9MMMM], the IC50 on human JAK3 is ≥ 500 nM; against human JAK2, ≥ 500 nM; on TYK2 JH2 domain it was 5 to 50 nM; at human JAK1 it was ≥ 500 nM.

Regarding `CCC(=O)c1cnc(Nc2ccc(O[C@@H]3CCN(C)C3)cn2)cc1Nc1cccc(-c2ncn(C)n2)c1OC` [Compound 18V], the IC50 is 50 to 500 nM on human JAK3, ≥ 500 nM against human JAK2, < 5 nM at TYK2 JH2 domain and ≥ 500 nM against human JAK1.

As for `CCC(=O)c1cnc(Nc2ccn([C@H]3C[C@@H](O)C3)n2)cc1Nc1cccc(-c2ncn(C)n2)c1OC` [Compound 21J], the IC50 against human JAK3 is ≥ 500 nM; on human JAK2, ≥ 500 nM; on TYK2 JH2 domain, 5 to 50 nM; on human JAK1, ≥ 500 nM.

In the case of `CCC(=O)c1cnc(Nc2ccn(CCOC)n2)cc1Nc1cccc(-c2ncn(C)n2)c1OC` [Compound 21B], the IC50 was ≥ 500 nM against human JAK3, ≥ 500 nM against human JAK2, 5 to 50 nM at TYK2 JH2 domain and ≥ 500 nM on human JAK1.

In the case of `CCC(=O)c1cnc(Nc2ccc(S(C)(=O)=O)cn2)cc1Nc1cccc(C(C)O)c1OC` (stereo not shown) [Compound 13Q], the IC50 on human JAK3 was ≥ 500 nM; at human JAK2, ≥ 500 nM; on TYK2 JH2 domain, 5 to 50 nM; against human JAK1 it was ≥ 500 nM.

For `CCC(=O)c1cnc(Nc2cnc(OCCn3ccnc3C)cn2)cc1Nc1cccc(-c2ncn(C)n2)c1OC` [Compound 18III], the IC50 against human JAK3 was ≥ 500 nM; at human JAK2, ≥ 500 nM; at TYK2 JH2 domain, 5 to 50 nM; against human JAK1, ≥ 500 nM.

As to `CCC(=O)c1cnc(Nc2ccc(CS(C)(=O)=O)cn2)cc1Nc1cccc(-c2ncn(C)n2)c1OC` [Compound 13A, 1-(4-((2-methoxy-3-(1-methyl-1H-1,2,4-triazol-3-yl)phenyl)amino)-6-((5-((methylsulfonyl)methyl)pyridin-2-yl)amino)pyridin-3-yl)propan-1-one], the IC50 is 50 to 500 nM against human JAK3, 50 to 500 nM on human JAK2, < 5 nM on TYK2 JH2 domain and ≥ 500 nM against human JAK1.

Consider `CCC(=O)c1cnc(NC(=O)CC2CCN(C)CC2)cc1Nc1cccc(-c2ncn(C)n2)c1OC` [Compound 23A, N-(4-((2-methoxy-3-(1-methyl-1H-1,2,4-triazol-3-yl)phenyl)amino)-5-propionylpyridin-2-yl)-2-(1-methylpiperidin-4-yl)acetamide], for which the IC50 against human JAK3 is ≥ 500 nM; at human JAK2, ≥ 500 nM; at TYK2 JH2 domain, 5 to 50 nM; on human JAK1, ≥ 500 nM.

On to `CCC(=O)c1cnc(Nc2ccc([C@H](C)N3CC4(COC4)C3)cn2)cc1Nc1cccc(-c2ncn(C)n2)c1OC` [Compound 9AAA], for which the IC50 on human JAK3 is ≥ 500 nM; on human JAK2, ≥ 500 nM; at TYK2 JH2 domain it was < 5 nM; on human JAK1, ≥ 500 nM.

Regarding `CCC(=O)c1cnc(Nc2nccc(CN(C)C)c2F)cc1Nc1cccc(-c2ncn(C)n2)c1OC` [Compound 9TTTT], the IC50 at human JAK3 was ≥ 500 nM; against human JAK2 it was ≥ 500 nM; on TYK2 JH2 domain, 5 to 50 nM; on human JAK1, ≥ 500 nM.

Regarding `COc1c(-c2ncn(C)n2)ccnc1Nc1cc(Nc2ccc(-c3ncn(C)n3)cn2)ncc1C(=O)C1CC1` [Compound 15O], the IC50 was ≥ 500 nM at human JAK3, ≥ 500 nM at human JAK2, 5 to 50 nM at TYK2 JH2 domain and ≥ 500 nM against human JAK1.

With `CCC(=O)c1cnc(Nc2ccc(S(=O)(=O)C3CC3)cn2)cc1Nc1cccc(-c2ncn(C)n2)c1OC` [Compound 13H], the IC50 was 50 to 500 nM at human JAK3, 50 to 500 nM against human JAK2, < 5 nM at TYK2 JH2 domain and ≥ 500 nM on human JAK1.

In the case of `CCC(=O)c1cnc(Nc2ccc(-n3cccn3)cn2)cc1Nc1cccc(-c2ncn(C)n2)c1OC` [Compound 15H], the IC50 against human JAK3 was ≥ 500 nM; against human JAK2, ≥ 500 nM; at TYK2 JH2 domain, < 5 nM; against human JAK1, ≥ 500 nM.

For `CCC(=O)c1cnc(Nc2cc(CN3CCCC3)ncn2)cc1Nc1cccc(-c2ncn(C)n2)c1OC` [Compound 9NNNN], the IC50 against human JAK3 was ≥ 500 nM; against human JAK2, ≥ 500 nM; at TYK2 JH2 domain it was < 5 nM; against human JAK1, ≥ 500 nM.
